Laboratory results reported in US20250195490A1, “ALPHA-METHYLENE AND AMINOMETHYL LACTONES AND LACTAMS FOR TREATMENT OF CLOSTRIDIOIDES DIFFICILE INFECTION (CDI)” (Purdue Research Foundation, priority 2022, published 2025).
Converted amounts (≈) assume the structure as drawn. Where two headings read alike, the source gives them in different places.

Tests used:
[1] = system: hypervirulent Clostridioides difficile strains; test: MIC against hypervirulent Clostridioides difficile strains; type: cell-based
Procedure: (§1) The antibacterial activity of compounds 48, 50, 51, 61 and 85 against a panel of Clostridioides difficile strains was evaluated. A bacterial solution equivalent to 0.5 McFarland standard was prepared and diluted in brain heart infusion broth supplemented with hemin and vitamin K. Compounds and control drugs were added in the first row of 96-well plates and serially diluted with media containing bacteria (to achieve a concentration gradient ranging from 128 to 1 μg/mL). Plates were then incubated anaerobically at […] for 48 hours.

[2] = system: clinically important Clostridioides difficile strains; test: MIC against clinically important Clostridioides difficile strains; type: cell-based; conditions: Clostridioides difficile, read-out: MIC
Procedure: as §1

L. gasseri = test: MIC against human normal gut microbiota: L. gasseri; type: cell-based, Lactobacillus gasseri; conditions: Lactobacillus gasseri; L. gasseri HM 407; read-out: MIC
Excerpt: (§2) The activity of the selected lactones against the human gut microbiota was also examined. Microbiota interfere with C. difficile's ability to colonize the gastrointestinal tract and subsequently cause infection. Many antibiotics inhibit/kill the endogenous microflora, which permits enhanced colonization by C. difficile and infection. Three different bacterial species that are present in the gut microflora were used in this experiment; Bifidobacterium (anaerobic Gram-positive bacteria), Bacteroides (anaerobic Gram-negative bacteria) and Lactobacillus (microaerophilic Gram-positive bacteria). Ideal compounds/drugs are those with selective antibacterial activity against C. difficile so as to protect the indigenous microflora present in the GI tract from being damaged/killed (which will exacerbate infections caused by C. difficile).
(§3) Bifidobacterium and Bacteroides were first grown for 48 hours at 37° C., anaerobically, using brain heart infusion supplemented (BHIS) agar (brain heart infusion agar supplemented with hemin, vitamin K and L-cysteine). Lactobacillus was cultivated on MRS agar and incubated in the presence of 5% CO2 for 48 hours at 37° C. Each bacterium was suspended in phosphate-buffered saline (PBS) to achieve 0.5 McFarland standard and subsequently diluted in brain heart infusion supplemented broth (for Bifidobacterium and Bacteroides) or in MRS broth (for Lactobacillus) to achieve a bacterial inoculum of approximately 5×10^5 CFU/mL. Bacteria were then seeded in 96-well plates containing serial dilutions of the compounds and incubated for 48 hours. MICs reported in Table 4 are the minimum concentration of compound/control drug that inhibited the visual growth of bacteria.

L. casei = test: MIC against human normal gut microbiota: L. casei; type: cell-based, Lactobacillus casei; conditions: Lacticaseibacillus casei; L. casei HM 334; read-out: MIC
Excerpt: as §2, §3

L. reuteri = test: MIC against human normal gut microbiota: L. reuteri; type: cell-based, Lactobacillus reuteri; conditions: Limosilactobacillus reuteri; L. reuteri HM 120; read-out: MIC
Excerpt: as §2, §3

L. crispatus = test: MIC against human normal gut microbiota: L. crispatus; type: cell-based, Lactobacillus crispatus; conditions: Lactobacillus crispatus, read-out: MIC
Excerpt: as §2, §3

Ba. fragilis = test: MIC against human normal gut microbiota: Bacteroides fragilis; type: cell-based
Excerpt: as §2, §3

Ba. dorsei = test: MIC against human normal gut microbiota: Bacteroides dorsei; type: cell-based
Excerpt: as §2, §3

Bi. breve = test: MIC against human normal gut microbiota: Bifidobacterium breve; type: cell-based; conditions: Bifidobacterium breve; Bi. breve HM 856; read-out: MIC
Excerpt: as §2, §3

Bi. longum = test: MIC against human normal gut microbiota: Bifidobacterium longum; type: cell-based; conditions: Bifidobacterium longum; Bi. longum HM 848; read-out: MIC
Excerpt: as §2, §3

Clostridioides difficile [3] = conditions: cited from earlier work
Clostridioides difficile [4] = test: MIC by broth microdilution against Clostridioides difficile (Table 1); type: cell-based; conditions: Clostridioides difficile, BAA1870; anaerobic, 48 hours; strain BAA-1870; read-out: MIC Clostridioides difficile
Procedure: Method: The minimum inhibitory concentration (MIC) of the compounds and control drugs, linezolid (antibiotic), vancomycin (antibiotic), 5-fluorocytosine (5-FC, antifungal drug), and fluconazole (antifungal drug) was determined using the broth microdilution method according to the guidelines outlined by the Clinical and Laboratory Standards Institute (CLSI) against clinically relevant bacterial (methicillin-resistant Staphylococcus aureus (MRSA), vancomycin-resistant Enterococcus faecalis (VRE), vancomycin-resistant Enterococcus faecium (VRE), Clostridioides difficile and Escherichia coli) and fungal (Candida albicans) strains. A solution equivalent to 0.5 McFarland standard was prepared from each strain and diluted in cation-adjusted Mueller-Hinton broth (for S. aureus and E. coli), tryptone soy broth (for E. faecalis), or brain heart infusion broth (for E. faecium) to achieve a bacterial inoculum of about 5×10^5 CFU/mL. C. difficile strains were cultured in brain heart infusion broth supplemented with hemin and vitamin K. C. albicans was diluted in RPMI medium supplemented with 3-(N-morpholino) propanesulfonic acid to achieve a fungal concentration of about 1.5×10^3 CFU/mL. Compounds and control drugs were added in the first row of the 96-well plates and diluted with media containing bacteria (to achieve a concentration gradient ranging from 128 to 1 μg/mL). For MRSA, VRE, and E. coli strains, plates were then incubated aerobically at 37° C. for at least 18 hours. C. albicans was incubated aerobically at 37° C. for 24 hours. Plates containing C. difficile were incubated anaerobically at […] for 48 hours.

normal gut microflora = test: Activity against normal human gut microflora (panel statement); type: cell-based
Excerpt: as §2
Bifidobacterium and Bacteroides were first grown for 48 hours at 37° C., anaerobically, using brain heart infusion supplemented (BHIS) agar (brain heart infusion agar supplemented with hemin, vitamin K and L-cysteine). Lactobacillus was cultivated on MRS agar and incubated in the presence of 5% CO2 for 48 hours at 37° C. […]

[5] = Clostridioides difficile, CD strain 81
[6] = Clostridioides difficile, CD strain 82
[7] = Clostridioides difficile, CD strain 83
[8] = Clostridioides difficile, CD strain 85
[9] = Clostridioides difficile, CD strain 86
[10] = Clostridioides difficile, CD strain 87
[11] = Clostridioides difficile, CD strain 90
[12] = Clostridioides difficile, CD strain 49279
[13] = Clostridioides difficile, CD strain 49287
[14] = Clostridioides difficile, CD strain 49291
[15] = Bacteroides fragilis, Ba. fragilis HM 709, read-out: MIC
[16] = Bacteroides, Ba. dorsei HM 29, read-out: MIC

CCc1c(Cl)c(O)c(Cl)c(O)c1C(=O)O[C@H]1[C@H](O)[C@H](OC)[C@H](OC/C2=C\C=C\C[C@H](O)/C(C)=C/[C@H](CC)[C@@H](O[C@@H]3OC(C)(C)[C@@H](OC(=O)C(C)C)[C@H](O)[C@@H]3O)/C(C)=C/C(C)=C/C[C@@H]([C@@H](C)O)OC2=O)O[C@@H]1C [Fidaxomicin, fidaxomicin, reference compound]
MIC ([1]; CD strain 84): 0/03 | MIC [1, 5]: 0.03 µg/mL (≈ 0.0284 µM) | MIC [1, 6]: 0.3 µg/mL (≈ 0.284 µM) | MIC [1, 7]: 0.015 µg/mL (≈ 0.0142 µM) | MIC [1, 8]: 0.03 µg/mL (≈ 0.0284 µM) | MIC [1, 9]: 0.06 µg/mL (≈ 0.0567 µM) | MIC [1, 10]: 0.015 µg/mL (≈ 0.0142 µM) | MIC [1, 11]: ≤ 0.007 µg/mL | MIC [1, 12]: ≤ 0.007 µg/mL | MIC [1, 13]: ≤ 0.007 µg/mL | MIC [1, 14]: ≤ 0.007 µg/mL | MIC ([2]; CD strain 16): 0.015 µg/mL (≈ 0.0142 µM) | MIC ([2]; CD strain 18): ≤ 0.007 µg/mL | MIC ([2]; CD strain 19): 0.015 µg/mL (≈ 0.0142 µM) | MIC ([2]; CD strain 1801): 0.015 µg/mL (≈ 0.0142 µM) | MIC ([2]; CD strain 43255): 0.03 µg/mL (≈ 0.0284 µM) | MIC ([2]; CD strain P6): ≤ 0.007 µg/mL | MIC ([2]; CD strain P7): ≤ 0.007 µg/mL | MIC ([2]; CD strain P13): ≤ 0.007 µg/mL | MIC ([2]; CD strain P19): 0.03 µg/mL (≈ 0.0284 µM) | MIC (L. gasseri): 1 µg/mL (≈ 0.945 µM) | MIC (L. casei): 2 µg/mL (≈ 1.89 µM) | MIC (L. reuteri): 128 µg/mL (≈ 121 µM) | MIC (L. crispatus; L. crispatus HM 375): ≤ 1 µg/mL | MIC (L. crispatus; L. crispatus HM 421): 2 µg/mL (≈ 1.89 µM) | MIC (Ba. fragilis; Ba. fragilis HM 710): >128 µg/mL | MIC (Ba. fragilis; Ba. fragilis HM 711): >128 µg/mL | MIC (Ba. fragilis; Ba. fragilis HM 714): >128 µg/mL | MIC (Ba. fragilis; [15]): > 128 µg/mL | MIC (Ba. dorsei; Ba. dorsei HM 717): >128 µg/mL | MIC (Ba. dorsei; [16]): > 128 µg/mL | MIC (Bi. breve): > 128 µg/mL | MIC (Bi. longum): 32 µg/mL (≈ 30.2 µM) | recurrence rate (Clostridioides difficile [3]; infections involving the hypervirulent strains): 24% | recurrence rate (Clostridioides difficile [3]; patients treated for an episode of recurrent C. difficile-associated diarrhea): 20%

Cc1ncc([N+](=O)[O-])n1CCO [Metronidazole, reference compound]
MIC (Clostridioides difficile [4]): 0.25 µg/mL (≈ 1.46 µM) | MIC [1, 5]: 0.125 µg/mL (≈ 0.73 µM) | MIC [1, 6]: 0.25 µg/mL (≈ 1.46 µM) | MIC [1, 7]: 0.25 µg/mL (≈ 1.46 µM) | MIC ([1]; Clostridioides difficile, CD strain 84): 0.25 µg/mL (≈ 1.46 µM) | MIC [1, 8]: 0.25 µg/mL (≈ 1.46 µM) | MIC [1, 9]: 0.125 µg/mL (≈ 0.73 µM) | MIC [1, 10]: 0.125 µg/mL (≈ 0.73 µM) | MIC [1, 11]: 0.125 µg/mL (≈ 0.73 µM) | MIC [1, 12]: 0.125 µg/mL (≈ 0.73 µM) | MIC [1, 13]: ≤ 0.06 µg/mL | MIC [1, 14]: 0.125 µg/mL (≈ 0.73 µM) | MIC ([2]; CD strain 16): 0.25 µg/mL (≈ 1.46 µM) | MIC ([2]; CD strain 18): ≤ 0.06 µg/mL | MIC ([2]; CD strain 19): 0.125 µg/mL (≈ 0.73 µM) | MIC ([2]; CD strain 1801): 0.125 µg/mL (≈ 0.73 µM) | MIC ([2]; CD strain 43255): 0.125 µg/mL (≈ 0.73 µM) | MIC ([2]; CD strain P6): ≤ 0.06 µg/mL | MIC ([2]; CD strain P7): 0.25 µg/mL (≈ 1.46 µM) | MIC ([2]; CD strain P13): ≤ 0.06 µg/mL | MIC ([2]; CD strain P19): 0.25 µg/mL (≈ 1.46 µM) | MIC (L. gasseri): > 128 µg/mL | MIC (L. casei): > 128 µg/mL | MIC (L. reuteri): > 128 µg/mL | MIC (L. crispatus; L. crispatus HM 375): > 128 µg/mL | MIC (L. crispatus; L. crispatus HM 421): > 128 µg/mL | MIC (Ba. fragilis; Ba. fragilis HM 710): ≤1 µg/mL | MIC (Ba. fragilis; Ba. fragilis HM 711): ≤1 µg/mL | MIC (Ba. fragilis; Ba. fragilis HM 714): ≤1 µg/mL | MIC (Ba. fragilis; [15]): ≤ 1 µg/mL | MIC (Ba. dorsei; Ba. dorsei HM 717): ≤1 µg/mL | MIC (Ba. dorsei; [16]): ≤ 1 µg/mL | MIC (Bi. breve): ≤ 1 µg/mL | MIC (Bi. longum): 64 µg/mL (≈ 374 µM) | inhibition of bacteria of the normal gut microflora (normal gut microflora): inhibited growth of species of Bacteroides and Bifidobacterium
